Source: publication PMC2668073, “N- and C-Terminal Domains of the Calcium Binding Protein EhCaBP1 of the Parasite Entamoeba histolytica Display Distinct Functions” (PLoS ONE, 2009)

Target: T1, EhCaBP1 (Entamoeba histolytica, UniProt P38505)
T1 construct: gene CaBP1; trimer, Phe site between EF1 and EF2 of neighbouring molecules; C-terminal half without density; strain printed for amoeba culture only
Experiment: X-ray crystal structure of the complex (co-crystallisation)
Type: binding
Conditions: 2 mM phenylalanine, 10 mM CaCl2 in protein solution; crystals from 63-65% MPD, 5 mM CaCl2, 50 mM acetate pH 4, 16 °C; hydrophobic pocket between EF1 and EF2 of adjacent molecules

T1 sequence (P38505 whole entry): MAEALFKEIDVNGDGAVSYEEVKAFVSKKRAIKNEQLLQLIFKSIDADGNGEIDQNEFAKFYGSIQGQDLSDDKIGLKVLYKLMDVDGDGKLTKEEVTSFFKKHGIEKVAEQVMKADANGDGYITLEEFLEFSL

**Q.** For N[C@@H](Cc1ccccc1)C(=O)O [Phenylalanine], which “X-ray crystal structure of the complex (co-crystallisation)” value is on record?
**A.** The value was “hydrophobic pocket formed at the interface between EF1 and EF2 in the assembled domain”.
